From patent US10301267B2, “Compounds” (AstraZeneca AB, priority 2006, dated 2019)

Molecular target: FGFR1 active kinase (Homo sapiens, UniProt P11362)
Test: FGFR Kinase assay - Caliper Echo Dosing
Format: biochemical
Settings: FGFR1 7.2 nM, 408 uM ATP, acoustic dosing; geometric mean of n
Protocol: FGFR Kinase Assay—Caliper Echo Dosing
To determine inhibition of FGFR activity, kinase assays were conducted using Caliper technology.
Kinase activity assays were performed in Greiner 384-well low volume plates, with a total reaction volume of 12 ul per well. Final concentration of FGFR1 active kinase in each reaction well was 7.2 nM. The substrate for each assay was a custom peptide with fluorescent tag (13 amino acids in length, […] with the fluorescene tag on the first K).
Compounds were dispensed directly in to assay plates using a Labcyte Echo 550 acoustic droplet ejection unit. Each well received 120 nl of DMSO containing compound such that the final concentration of compound in the assay prior to the addition of the stop solution ranged between 30 uM and 30 pM. In addition to compounds each plate carried maximum and minimum control wells, the max wells contained 120 nl of DMSO and the min wells contained 120 nl of 10 mM staurosporine (LC Laboratories, MA 01801, USA Catalogue No. S-9300). The Enzyme (at 7.2 nM [final]) and Substrate (at 3.6 uM [final]) were added separately to the compound plates, in reaction buffer [comprising: 50 mM MOPS (Sigma, Catalogue No. M1254)—pH 6.5, 0.004% Triton (Sigma, Catalogue No. X-100), 2.4 mM DTT, 12 mM MgCl2, 408 uM ATP] resulting in a final DMSO concentration in the reaction mix of 1%.
Assay plates were incubated at room temperature for 1.5 h, before the reaction was stopped with the addition of buffer [comprising: 100 mM HEPES—pH7.5, 0.033% Brij-35 (Sigma Catalogue No. B4184), 0.22% Caliper Coating Reagent #3 (Caliper Life Sciences Catalogue No. 760050), 88 mM EDTA, 5% DMSO]. Stopped assay plates were then read using the Caliper LabChip® LC3000 (which uses microfludics to measure a shift in mobility between fluorescent labelled peptide and the FGFR1 kinase—phosphorylated form of this peptide).
In the assay, compounds were tested at a range of concentrations. […] Percentage inhibition at 1 uM, as expressed herein, is a calculated value based on the curve fit that was generated experimentally. From the fitted curve plot, the effect of compound at a concentration of 1 uM was calculated as a percentage inhibition. The IC50 is the concentration of compound, which inhibits FGFR1 kinase activity by 50% in the context of this assay. This value is calculated using a standard curve fitting software package Origin™.

Sequence of FGFR1 active kinase (P11362 22-822): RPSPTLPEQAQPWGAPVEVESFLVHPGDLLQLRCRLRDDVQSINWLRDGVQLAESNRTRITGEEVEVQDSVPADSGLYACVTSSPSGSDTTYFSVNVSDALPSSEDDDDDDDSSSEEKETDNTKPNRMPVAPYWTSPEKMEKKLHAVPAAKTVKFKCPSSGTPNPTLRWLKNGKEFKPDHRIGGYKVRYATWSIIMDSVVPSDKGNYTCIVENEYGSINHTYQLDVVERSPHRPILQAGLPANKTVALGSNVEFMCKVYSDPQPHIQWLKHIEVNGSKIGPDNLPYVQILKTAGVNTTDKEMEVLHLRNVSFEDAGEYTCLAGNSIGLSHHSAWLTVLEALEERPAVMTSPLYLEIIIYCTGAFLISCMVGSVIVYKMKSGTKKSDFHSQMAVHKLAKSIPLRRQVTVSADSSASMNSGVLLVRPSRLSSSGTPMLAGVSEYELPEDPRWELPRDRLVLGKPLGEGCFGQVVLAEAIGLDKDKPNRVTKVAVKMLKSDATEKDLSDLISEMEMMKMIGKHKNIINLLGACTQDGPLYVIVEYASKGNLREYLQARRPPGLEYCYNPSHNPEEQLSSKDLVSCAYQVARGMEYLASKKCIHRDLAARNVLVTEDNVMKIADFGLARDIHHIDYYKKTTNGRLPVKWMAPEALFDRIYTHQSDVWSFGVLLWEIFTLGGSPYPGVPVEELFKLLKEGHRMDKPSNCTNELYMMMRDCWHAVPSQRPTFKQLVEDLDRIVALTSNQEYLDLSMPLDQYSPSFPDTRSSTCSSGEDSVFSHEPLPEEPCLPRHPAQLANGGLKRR

| SMILES | IC50 [nM] |
| --- | --- |
| COc1cc(COc2cc(NC(=O)c3cnc(N4CCN(C)C(C)C4)nc3)[nH]n2)cc(OC)c1 (stereo not shown) [Example 132, N-[5-[(3,5-dimethoxyphenyl)methoxy]-2H-pyrazol-3-yl]-2-(3,4-dimethylpiperazin-1-yl)pyrimidine-5-carboxamide] | 3.6 |
| COc1cc(COc2cc(NC(=O)c3cnc(N4CCN(C5CC5)CC4)nc3)[nH]n2)cc(OC)c1 [Example 133, 2-(4-cyclopropylpiperazin-1-yl)-N-[5-[(3,5-dimethoxyphenyl)methoxy]-2H-pyrazol-3-yl]pyrimidine-5-carboxamide] | 3.9 |
| COc1cc(COc2cc(NC(=O)c3cnc(N4CCN5CCCC5C4)nc3)[nH]n2)cc(OC)c1 (stereo not shown) [Example 134, 2-(3,4,6,7,8,8a-hexahydro-1H-pyrrolo[2,1-c]pyrazin-2-yl)-N-[5-[(3,5-dimethoxyphenyl)methoxy]-2H-pyrazol-3-yl]pyrimidine-5-carboxamide] | 2.4 |
| COc1cc(CCc2cc(NC(=O)c3cnc(N4C[C@@H](C)N(C)[C@@H](C)C4)nc3)[nH]n2)cc(OC)c1 [Example 136, N-[5-[2-(3,5-dimethoxyphenyl)ethyl]-2H-pyrazol-3-yl]-2-[(3R,5S)-3,4,5-trimethylpiperazin-1-yl]pyrimidine-5-carboxamide] | 1.9 |
| COc1cc(COc2cc(NC(=O)c3cnc(N4C[C@@H](C)N(C)[C@@H](C)C4)nc3)[nH]n2)cc(OC)c1 [Example 138, N-(3-(3,5-dimethoxybenzyloxy)-1H-pyrazol-5-yl)-2-((3R,5S)-3,4,5-trimethylpiperazin-1-yl)pyrimidine-5-carboxamide] | 2.6 |
| COc1cc(COc2cc(NC(=O)c3ccc(N4CCNC(C)(C)C4)s3)[nH]n2)cc(OC)c1 [Example 140, N-[5-[(3,5-dimethoxyphenyl)methoxy]-2H-pyrazol-3-yl]-5-(3,3-dimethylpiperazin-1-yl)thiophene-2-carboxamide] | 0.98 |
| COc1cc(COc2cc(NC(=O)c3ccc(N4C[C@@H](C)N[C@@H](C)C4)s3)[nH]n2)cc(OC)c1 [Example 147, N-[5-[(3,5-dimethoxyphenyl)methoxy]-2H-pyrazol-3-yl]-5-[(3S,5R)-3,5-dimethylpiperazin-1-yl]thiophene-2-carboxamide] | 1.8 |
| COc1cc(CCc2cc(NC(=O)c3cnc(C4=CCN(C)CC4)cn3)[nH]n2)cc(OC)c1 [Example 153, N-[5-[2-(3,5-dimethoxyphenyl)ethyl]-2H-pyrazol-3-yl]-5-(1-methyl-3,6-dihydro-2H-pyridin-4-yl)pyrazine-2-carboxamide] | 0.82 |
| COc1cc(CCc2cc(NC(=O)c3cnc(N4CCC(N(C)C)C4)cn3)[nH]n2)cc(OC)c1 (stereo not shown) [Example 157, N-[5-[2-(3,5-dimethoxyphenyl)ethyl]-2H-pyrazol-3-yl]-5-(3-dimethylaminopyrrolidin-1-yl)pyrazine-2-carboxamide] | 2.4 |
| CCN(CC)C1CCN(c2cnc(C(=O)Nc3cc(CCc4cc(OC)cc(OC)c4)n[nH]3)cn2)C1 (stereo not shown) [Example 158, 5-(3-diethylaminopyrrolidin-1-yl)-N-[5-[2-(3,5-dimethoxyphenyl)ethyl]-2H-pyrazol-3-yl]pyrazine-2-carboxamide] | 2.9 |
| COCC1CN(c2ncc(C(=O)Nc3cc(CCc4cc(OC)cc(OC)c4)n[nH]3)cn2)CCN1 (stereo not shown) [Example 160, N-[5-[2-(3,5-dimethoxyphenyl)ethyl]-2H-pyrazol-3-yl]-2-[3-(methoxymethyl)piperazin-1-yl]pyrimidine-5-carboxamide] | 4.3 |

Continued, values first:

| IC50 [nM] | SMILES |
| --- | --- |
| 2.6 | COc1cc(CCc2cc(NC(=O)c3cnc(N4CCN(C)C(C)C4)nc3)[nH]n2)cc(OC)c1 (stereo not shown) [Example 135, N-[5-[2-(3,5-dimethoxyphenyl)ethyl]-2H-pyrazol-3-yl]-2-(3,4-dimethylpiperazin-1-yl)pyrimidine-5-carboxamide] |
| 0.57 | COc1cc(CCc2cc(NC(=O)c3ccc(N4CCN(C(C)CO)CC4)cc3)[nH]n2)cc(OC)c1 (stereo not shown) [Example 137, N-[5-[2-(3,5-dimethoxyphenyl)ethyl]-2H-pyrazol-3-yl]-4-[4-(1-hydroxypropan-2-yl)piperazin-1-yl]benzamide] |
| 0.47 | COc1cc(CCc2cc(NC(=O)c3ccc(N4CCNC(C)(C)C4)cc3)[nH]n2)cc(OC)c1 [Example 139, N-[5-[2-(3,5-dimethoxyphenyl)ethyl]-2H-pyrazol-3-yl]-4-(3,3-dimethylpiperazin-1-yl)benzamide] |
| 0.86 | CCN1CCN(c2ccc(C(=O)Nc3cc(OCc4cc(OC)cc(OC)c4)n[nH]3)s2)CC1 [Example 141, N-[5-[(3,5-dimethoxyphenyl)methoxy]-2H-pyrazol-3-yl]-5-(4-ethylpiperazin-1-yl)thiophene-2-carboxamide] |
| 2.1 | COc1cc(CCc2cc(NC(=O)c3ccc(N4CCCN(C)CC4)s3)[nH]n2)cc(OC)c1 [Example 142, N-[5-[2-(3,5-dimethoxyphenyl)ethyl]-2H-pyrazol-3-yl]-5-(4-methyl-1,4-diazepan-1-yl)thiophene-2-carboxamide] |
| 2.7 | CCN1CCN(c2ncc(C(=O)Nc3cc(CCc4cc(OC)cc(OC)c4)n[nH]3)cn2)CC1C (stereo not shown) [Example 143, N-[5-[2-(3,5-dimethoxyphenyl)ethyl]-2H-pyrazol-3-yl]-2-(4-ethyl-3-methylpiperazin-1-yl)pyrimidine-5-carboxamide] |
| 0.041 | C=CCN1CCC(c2ccc(C(=O)Nc3cc(CCc4cc(OC)cc(OC)c4)n[nH]3)cc2)CC1 [Example 144, N-[5-[2-(3,5-dimethoxyphenyl)ethyl]-2H-pyrazol-3-yl]-4-(1-prop-2-enylpiperidin-4-yl)benzamide] |
| 0.7 | COc1cc(CCc2cc(NC(=O)c3ccc(N4CCCNCC4)cc3)[nH]n2)cc(OC)c1 [Example 145, 4-(1,4-diazepan-1-yl)-N-[5-[2-(3,5-dimethoxyphenyl)ethyl]-2H-pyrazol-3-yl]benzamide] |
| 1.1 | C#CCN1CCC(c2ccc(C(=O)Nc3cc(CCc4cc(OC)cc(OC)c4)n[nH]3)cc2)CC1 [Example 146, N-[5-[2-(3,5-dimethoxyphenyl)ethyl]-2H-pyrazol-3-yl]-4-(1-prop-2-ynylpiperidin-4-yl)benzamide] |
| 0.87 | COCCN1CCC(c2ccc(C(=O)Nc3cc(CCc4cc(OC)cc(OC)c4)n[nH]3)cc2)CC1 [Example 148, N-[5-[2-(3,5-dimethoxyphenyl)ethyl]-2H-pyrazol-3-yl]-4-[1-(2-methoxyethyl)piperidin-4-yl]benzamide] |
| 4.4 | COc1cc(CCc2cc(NC(=O)c3cnc(N4CCN[C@@H](C(C)C)C4)nc3)[nH]n2)cc(OC)c1 [Example 149, N-[5-[2-(3,5-dimethoxyphenyl)ethyl]-2H-pyrazol-3-yl]-2-[(3S)-3-propan-2-ylpiperazin-1-yl]pyrimidine-5-carboxamide] |
| 12 | COc1cc(CCc2cc(NC(=O)c3cnc(N4CCN(C)C(=O)C4)nc3)[nH]n2)cc(OC)c1 [Example 150, N-[5-[2-(3,5-dimethoxyphenyl)ethyl]-2H-pyrazol-3-yl]-2-(4-methyl-3-oxopiperazin-1-yl)pyrimidine-5-carboxamide] |
| 1.3 | COc1cc(COc2cc(NC(=O)c3ccc(N4CC5CCCNC5C4)cc3)[nH]n2)cc(OC)c1 (stereo not shown) [Example 151, 4-(1,2,3,4,4a,5,7,7a-octahydropyrrolo[3,4-b]pyridin-6-yl)-N-[5-[(3,5-dimethoxyphenyl)methoxy]-2H-pyrazol-3-yl]benzamide] |
| 1.3 | COc1cc(CCc2cc(NC(=O)c3cnc(C4CCN(C)CC4)cn3)[nH]n2)cc(OC)c1 [Example 152, N-[5-[2-(3,5-dimethoxyphenyl)ethyl]-2H-pyrazol-3-yl]-5-(1-methylpiperidin-4-yl)pyrazine-2-carboxamide] |
| 0.45 | COc1cc(CCc2cc(NC(=O)c3ccc(N4C[C@@H](C)N(C)[C@@H](C)C4)cc3)[nH]n2)cc(OC)c1 [Example 155, N-[5-[2-(3,5-dimethoxyphenyl)ethyl]-2H-pyrazol-3-yl]-4-[(3R,5S)-3,4,5-trimethylpiperazin-1-yl]benzamide] |
| 0.81 | COc1cc(CCc2cc(NC(=O)c3ccc(N4CCCN(C)CC4)cc3)[nH]n2)cc(OC)c1 [Example 156, N-[5-[2-(3,5-dimethoxyphenyl)ethyl]-2H-pyrazol-3-yl]-4-(4-methyl-1,4-diazepan-1-yl)benzamide] |
| 0.97 | CCN1CCC(c2ccc(C(=O)Nc3cc(CCc4cc(OC)cc(OC)c4)n[nH]3)cc2)CC1 [Example 159, N-[5-[2-(3,5-dimethoxyphenyl)ethyl]-2H-pyrazol-3-yl]-4-(1-ethylpiperidin-4-yl)benzamide] |
